A value given as a limit tells only on which side of the number the result lay.

T1 sequence (O00763 144-2458): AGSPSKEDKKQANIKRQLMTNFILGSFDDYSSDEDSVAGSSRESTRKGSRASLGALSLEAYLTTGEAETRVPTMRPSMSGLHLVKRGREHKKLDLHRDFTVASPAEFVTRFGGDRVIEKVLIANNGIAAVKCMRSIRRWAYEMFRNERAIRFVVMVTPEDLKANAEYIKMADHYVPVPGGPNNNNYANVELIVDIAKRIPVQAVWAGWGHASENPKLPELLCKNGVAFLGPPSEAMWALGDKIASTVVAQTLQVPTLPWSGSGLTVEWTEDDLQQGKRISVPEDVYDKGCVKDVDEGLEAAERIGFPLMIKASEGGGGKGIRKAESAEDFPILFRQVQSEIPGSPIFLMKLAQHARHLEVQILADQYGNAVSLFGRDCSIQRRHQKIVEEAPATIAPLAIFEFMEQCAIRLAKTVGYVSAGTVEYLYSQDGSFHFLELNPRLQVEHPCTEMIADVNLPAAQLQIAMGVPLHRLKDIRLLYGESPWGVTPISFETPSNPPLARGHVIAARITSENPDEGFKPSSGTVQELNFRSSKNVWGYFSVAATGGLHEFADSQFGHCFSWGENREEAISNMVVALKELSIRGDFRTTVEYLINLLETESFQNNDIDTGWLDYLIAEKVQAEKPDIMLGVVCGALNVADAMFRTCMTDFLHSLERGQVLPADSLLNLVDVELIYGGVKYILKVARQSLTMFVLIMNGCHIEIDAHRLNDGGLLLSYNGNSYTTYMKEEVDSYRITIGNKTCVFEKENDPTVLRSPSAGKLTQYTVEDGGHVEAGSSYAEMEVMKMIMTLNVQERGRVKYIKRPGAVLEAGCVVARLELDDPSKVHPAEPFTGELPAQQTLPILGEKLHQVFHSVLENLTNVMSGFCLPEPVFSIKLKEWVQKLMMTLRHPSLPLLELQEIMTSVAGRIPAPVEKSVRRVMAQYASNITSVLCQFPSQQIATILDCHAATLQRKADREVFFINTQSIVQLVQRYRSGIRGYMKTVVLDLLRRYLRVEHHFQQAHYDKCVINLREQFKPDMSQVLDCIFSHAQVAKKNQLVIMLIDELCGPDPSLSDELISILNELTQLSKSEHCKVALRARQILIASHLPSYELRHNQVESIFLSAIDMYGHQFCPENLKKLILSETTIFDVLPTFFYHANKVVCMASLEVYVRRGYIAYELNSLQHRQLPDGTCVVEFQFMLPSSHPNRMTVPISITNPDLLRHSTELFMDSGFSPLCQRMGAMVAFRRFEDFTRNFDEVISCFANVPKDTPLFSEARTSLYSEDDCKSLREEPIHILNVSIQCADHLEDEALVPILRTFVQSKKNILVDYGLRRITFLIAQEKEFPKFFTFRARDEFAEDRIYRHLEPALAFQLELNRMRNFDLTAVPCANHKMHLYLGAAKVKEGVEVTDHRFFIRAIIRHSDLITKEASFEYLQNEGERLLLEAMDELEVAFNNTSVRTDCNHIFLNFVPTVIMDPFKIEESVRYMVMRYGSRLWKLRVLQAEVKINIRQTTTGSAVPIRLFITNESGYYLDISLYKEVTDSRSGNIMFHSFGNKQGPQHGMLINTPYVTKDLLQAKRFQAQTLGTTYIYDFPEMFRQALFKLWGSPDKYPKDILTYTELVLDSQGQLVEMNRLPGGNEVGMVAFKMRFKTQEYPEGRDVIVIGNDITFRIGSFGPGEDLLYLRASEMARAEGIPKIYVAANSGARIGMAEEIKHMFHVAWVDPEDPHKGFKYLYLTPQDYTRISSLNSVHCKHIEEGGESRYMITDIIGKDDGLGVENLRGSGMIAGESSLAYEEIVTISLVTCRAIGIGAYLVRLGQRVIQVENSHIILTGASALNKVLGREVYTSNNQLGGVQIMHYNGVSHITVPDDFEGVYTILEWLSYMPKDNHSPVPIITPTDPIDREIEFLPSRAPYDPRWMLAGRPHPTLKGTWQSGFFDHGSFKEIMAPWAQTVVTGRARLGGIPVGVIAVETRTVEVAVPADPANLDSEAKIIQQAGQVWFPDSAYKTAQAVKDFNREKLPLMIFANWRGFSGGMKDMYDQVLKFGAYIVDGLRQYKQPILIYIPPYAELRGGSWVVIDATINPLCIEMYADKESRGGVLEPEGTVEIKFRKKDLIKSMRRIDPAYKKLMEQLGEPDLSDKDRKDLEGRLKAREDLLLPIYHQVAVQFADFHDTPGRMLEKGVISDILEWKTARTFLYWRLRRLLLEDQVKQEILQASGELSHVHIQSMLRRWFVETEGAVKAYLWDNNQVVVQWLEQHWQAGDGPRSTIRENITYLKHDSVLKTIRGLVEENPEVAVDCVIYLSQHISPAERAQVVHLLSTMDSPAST

This assay has as its target T1, human acetyl-CoA carboxylase 2 (ACC2) (Homo sapiens, UniProt O00763).
T1 construct: The cDNA encoding amino acids 144 to 2458 of human acetyl-CoA carboxylase 2; made in house; host or cells: Sf9 insect cells (baculovirus, pFastBac1)
Description: Acetyl-CoA carboxylase enzyme assay (malonyl-CoA formation by LC/MS/MS). The class given is biochemical. To be noted: recombinant human ACC2 (aa 144-2458); read-out: IC50 ACC2. The essentials: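 Malonyl-CoA formation was read by LC/MS/MS MRM against a [13C3]-malonyl-CoA internal standard, after acetic acid quench. The enzyme was baculovirus/Sf9-expressed human ACC2 residues 144–2458, given 15 minutes room-temperature compound preincubation in HEPES pH 7.5 buffer with MgCl2, citrate and DTT. Substrate solution held 50 μM acetyl-CoA, 120 μM ATP and 2 mM KHCO3.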
On to `CC(NC(=O)[C@H]1CC[C@H](NS(=O)(=O)c2ccc3c(c2)N(C)CCC3)CC1)c1cccnc1` (some centres unmarked) [Example 160, (1r,4r)-4-(1-methyl-1,2,3,4-tetrahydroquinoline-7-sulfonamido)-N-(1-(pyridin-3-yl)ethyl)cyclohexanecarboxamide], for which the IC50 is 0.08 µM.

As to `O=C(NCCO)[C@H]1CC[C@H](NS(=O)(=O)c2ccc3[nH]c(-c4ccccc4)nc3c2)CC1` [Example 621, (1r,4r)-N-(2-hydroxyethyl)-4-(2-phenyl-1H-benzo[d]imidazole-5-sulfonamido)cyclohexanecarboxamide], the concentration for half-maximal inhibition (IC50) amounted to 1.53 µM.

Consider `CC(C)(C)c1nnc([C@H]2CC[C@H](NS(=O)(=O)c3ccc4[nH]c(-c5ccccc5)nc4c3)CC2)o1` [Example 585, N-((1r,4r)-4-(5-tert-butyl-1,3,4-oxadiazol-2-yl)cyclohexyl)-2-phenyl-1H-benzo[d]imidazole-5-sulfonamide], for which the IC50 was 0.781 µM.

For the compound `COc1ccc(-c2cc3ccc(S(=O)(=O)N[C@H]4CC[C@H](C(=O)N5CCOC[C@@H]5C)CC4)cc3n2C)cc1` [Example 440, 2-(4-methoxyphenyl)-1-methyl-N-((1S,4r)-4-((S)-3-methylmorpholine-4-carbonyl)cyclohexyl)-1H-indole-6-sulfonamide], the 50% inhibitory concentration (IC50) was found to be 0.02 µM.

Take `O=C([C@H]1CC[C@H](NS(=O)(=O)c2ccc3[nH]c(-c4ccc(N5CCNCC5)cc4)nc3c2)CC1)N1CCOCC1` [Example 104, N-((1r,4r)-4-(morpholine-4-carbonyl)cyclohexyl)-2-(4-(piperazin-1-yl)phenyl)-1H-benzo[d]imidazole-5-sulfonamide]: the IC50 is 0.02 µM.

For `O=C([C@H]1CC[C@H](NS(=O)(=O)c2cnc3ccccc3c2)CC1)N1CCCC1c1ccccc1` (some centres unmarked) [Example 43, N-((1r,4r)-4-(2-phenylpyrrolidine-1-carbonyl)cyclohexyl)quinoline-3-sulfonamide], the IC50 was found to be 0.412 µM.

With `CC(NC(=O)[C@H]1CC[C@H](NS(=O)(=O)c2cnc3ccccc3c2)CC1)c1cnn(C)c1` (some centres unmarked) [Example 62, (1r,4r)-N-(1-(1-methyl-1H-pyrazol-4-yl)ethyl)-4-(quinoline-3-sulfonamido)cyclohexanecarboxamide], the IC50 was above 35 µM.

As for `C[C@@H](NC(=O)[C@H]1CC[C@H](NS(=O)(=O)c2ccc3nc(Cl)ccc3c2)CC1)c1ccc(F)cc1` [Example 42, (1r,4R)-4-(2-chloroquinoline-6-sulfonamido)-N-((R)-1-(4-fluorophenyl)ethyl)cyclohexanecarboxamide], the IC50 is 0.094 µM.

Regarding `CCOC(=O)CCc1c(Cl)c2ccc(S(=O)(=O)N[C@H]3CC[C@H](C(=O)N4CCCC4c4ccc(F)cc4)CC3)cc2n1C` (some centres unmarked) [Example 371, ethyl 3-(3-chloro-6-(N-((1r,4r)-4-(2-(4-fluorophenyl)pyrrolidine-1-carbonyl)cyclohexyl)sulfamoyl)-1-methyl-1H-indol-2-yl)propanoate], the IC50 came to 0.115 µM.

As to `Cn1c(-c2ccccc2)cc2ccc(S(=O)(=O)N[C@H]3CC[C@H](C(=O)N4CCCC(C(C)(C)O)C4)CC3)cc21` (some centres unmarked) [Example 378, N-((1r,4r)-4-(3-(2-hydroxypropan-2-yl)piperidine-1-carbonyl)cyclohexyl)-1-methyl-2-phenyl-1H-indole-6-sulfonamide], the 50% inhibitory concentration (IC50) turned out to be 0.01 µM.

As for `C[C@H]1COCCN1C(=O)[C@H]1CC[C@H](NS(=O)(=O)c2ccc3c(Cl)c(-c4ccccc4)[nH]c3c2)CC1` [Example 467, 3-chloro-N-((1S,4r)-4-((S)-3-methylmorpholine-4-carbonyl)cyclohexyl)-2-phenyl-1H-indole-6-sulfonamide], the IC50 is below 0.01 µM.

Turning to `COc1ccc(Nc2nc3cc(S(=O)(=O)Nc4ccc(C(=O)OC(C)C)cc4)ccc3[nH]2)cc1` [Example 523, isopropyl 4-(2-(4-methoxyphenylamino)-1H-benzo[d]imidazole-5-sulfonamido)benzoate], the half-maximal inhibitory concentration (IC50) is 0.463 µM.

For the compound `CC(C)(C)OC(=O)N1CCN(C(=O)[C@H]2CC[C@H](NS(=O)(=O)c3ccc4oc5ccccc5c4c3)CC2)[C@@H](c2ccccc2)C1` [Example 255, (S)-tert-butyl 4-((1r,4S)-4-(dibenzo[b,d]furan-2-sulfonamido)cyclohexanecarbonyl)-3-phenylpiperazine-1-carboxylate], the IC50 came to 0.015 µM.

On to `C[C@@H](NC(=O)[C@H]1CC[C@H](NS(=O)(=O)c2ccc3cc(CCO)[nH]c3c2)CC1)c1ccc(F)cc1` [Example 305, (1r,4R)-N-((R)-1-(4-fluorophenyl)ethyl)-4-(2-(2-hydroxyethyl)-1H-indole-6-sulfonamido)cyclohexanecarboxamide], for which the IC50 stood at 0.06 µM.

In the case of `C[C@@H](NC(=O)[C@H]1CC[C@H](NS(=O)(=O)c2ccc3[nH]c([C@@H]4CNCCN4)nc3c2)CC1)c1ccc(F)cc1` [Example 108, (1r,4R)-N-((R)-1-(4-fluorophenyl)ethyl)-4-(2-((S)-piperazin-2-yl)-1H-benzo[d]imidazole-5-sulfonamido)cyclohexanecarboxamide], the IC50 is 1.27 µM.

On to `Cc1ccccc1-c1cc2ccc(S(=O)(=O)N[C@H]3CC[C@H](C(=O)N4CCN[C@H](C(F)(F)F)C4)CC3)cc2[nH]1` [Example 342, 2-o-tolyl-N-((1S,4r)-4-((S)-3-(trifluoromethyl)piperazine-1-carbonyl)cyclohexyl)-1H-indole-6-sulfonamide], for which the concentration for half-maximal inhibition (IC50) came to 0.135 µM.

Regarding `CC(C)OC(=O)c1ccc(NS(=O)(=O)c2ccc3[nH]c(Nc4ccc(N5CCOCC5)cc4)nc3c2)cc1` [Example 532, isopropyl 4-(2-(4-morpholinophenylamino)-1H-benzo[d]imidazole-5-sulfonamido)benzoate], the IC50 turned out to be 0.109 µM.

In the case of `CCN(C)C(=O)[C@H]1CC[C@H](NS(=O)(=O)c2ccc3[nH]c(Nc4ccccc4)nc3c2)CC1` [Example 568, (1r,4r)-N-ethyl-N-methyl-4-(2-(phenylamino)-1H-benzo[d]imidazole-5-sulfonamido)cyclohexanecarboxamide], the concentration for half-maximal inhibition (IC50) was determined as 0.126 µM.

For `CC(C)OC(=O)c1ccc(NS(=O)(=O)c2ccc3[nH]c(Nc4ccc(N5CCOCC5)nc4)nc3c2)cc1` [Example 539, isopropyl 4-(2-(6-morpholinopyridin-3-ylamino)-1H-benzo[d]imidazole-5-sulfonamido)benzoate], the IC50 was 0.221 µM.

`Cn1c(-c2ccccc2)c(Cl)c2ccc(S(=O)(=O)N[C@H]3CC[C@H](C(=O)N4CCCCC4)CC3)cc21` [Example 374, 3-chloro-1-methyl-2-phenyl-N-((1r,4r)-4-(piperidine-1-carbonyl)cyclohexyl)-1H-indole-6-sulfonamide]: the 50% inhibitory concentration (IC50) was 0.02 µM.

On to `CC(C)(C)c1nnc([C@H]2CC[C@H](NS(=O)(=O)c3ccc4[nH]c(-c5ccc(N6CCNCC6)cc5)nc4c3)CC2)o1` [Example 655, N-((1r,4r)-4-(5-tert-butyl-1,3,4-oxadiazol-2-yl)cyclohexyl)-2-(4-(piperazin-1-yl)phenyl)-1H-benzo[d]imidazole-5-sulfonamide], for which the IC50 came out at 0.141 µM.

Consider `C[C@H]1COCCN1C(=O)[C@H]1CC[C@H](NS(=O)(=O)c2ccc3cc(-c4ccccc4)[nH]c3c2)CC1` [Example 462, N-((1S,4r)-4-((S)-3-methylmorpholine-4-carbonyl)cyclohexyl)-2-phenyl-1H-indole-6-sulfonamide], for which the IC50 is 0.015 µM.

With `C[C@@H](NC(=O)[C@H]1CC[C@H](NS(=O)(=O)c2ccc3nc(N4CCN(C(=O)OC(C)(C)C)CC4)ccc3c2)CC1)c1ccc(F)cc1` [Example 232, tert-butyl 4-(6-(N-((1R,4r)-4-((R)-1-(4-fluorophenyl)ethylcarbamoyl)cyclohexyl)sulfamoyl)quinolin-2-yl)piperazine-1-carboxylate], the 50% inhibitory concentration (IC50) worked out at 0.765 µM.

For `CC(C)c1nnc([C@H]2CC[C@H](NS(=O)(=O)c3ccc4[nH]c(-c5ccc(N6CCOCC6)cc5)nc4c3)CC2)o1` [Example 589, N-((1r,4r)-4-(5-isopropyl-1,3,4-oxadiazol-2-yl)cyclohexyl)-2-(4-morpholinophenyl)-1H-benzo[d]imidazole-5-sulfonamide], the half-maximal inhibitory concentration (IC50) is 0.516 µM.

For the compound `Cc1cc(-c2ccc3cc(S(=O)(=O)N[C@H]4CC[C@H](C(=O)NC(c5ccccc5)C(C)(C)O)CC4)ccc3n2)cc(C)n1` (some centres unmarked) [Example 253, (1r,4r)-4-(2-(2,6-dimethylpyridin-4-yl)quinoline-6-sulfonamido)-N-(2-hydroxy-2-methyl-1-phenylpropyl)cyclohexanecarboxamide], the IC50 stood at 0.02 µM.

As for `CC(C)(C)c1nnc([C@H]2CC[C@H](NS(=O)(=O)c3ccc4[nH]c(C5CC5)nc4c3)CC2)o1` [Example 651, N-((1r,4r)-4-(5-tert-butyl-1,3,4-oxadiazol-2-yl)cyclohexyl)-2-cyclopropyl-1H-benzo[d]imidazole-5-sulfonamide], the IC50 amounted to 6.35 µM.

As to `CN(C(=O)[C@H]1CC[C@H](NS(=O)(=O)c2ccc3[nH]c(-c4ccccc4)nc3c2)CC1)C1CCCCC1` [Example 618, (1r,4r)-N-cyclohexyl-N-methyl-4-(2-phenyl-1H-benzo[d]imidazole-5-sulfonamido)cyclohexanecarboxamide], the IC50 is 0.08 µM.

For the compound `COCCOc1ccc2cc(S(=O)(=O)N[C@H]3CC[C@H](C(=O)N[C@H](C)c4ccc(F)cc4)CC3)ccc2n1` [Example 68, (1r,4R)-N-((R)-1-(4-fluorophenyl)ethyl)-4-(2-(2-methoxyethoxy)quinoline-6-sulfonamido)cyclohexanecarboxamide], the concentration for half-maximal inhibition (IC50) was determined as 0.07 µM.

As for `CCOC(=O)Nc1ccc(Nc2nc3cc(S(=O)(=O)Nc4ccc(C(=O)OC(C)C)cc4)ccc3[nH]2)cc1` [Example 534, isopropyl 4-(2-(4-(ethoxycarbonylamino)phenylamino)-1H-benzo[d]imidazole-5-sulfonamido)benzoate], the IC50 turned out to be 0.524 µM.

The IC50 is the point on the concentration scale where inhibition reaches its midpoint.
